These results are taken from patent US7566531B2, “Selective whole cell quartz crystal microbalance biosensors” (University of Massachusetts, priority 2003, dated 2009).

The structures appear in SMILES notation. Where only a bound is given, the exact number is not on record here.

Assay [1] has as its system normal capillary endothelial cells. In words: cell removal from QCM by PBS-EGTA. It counts as cell-based. On the procedure: The above-described QCM biosensor was used to study cells and the ECM made by the cells. 50,000 normal capillary endothelial cells were seeded onto the QCM and maintained in DMEM-10% Calf Serum for 3-4 days to synthesize ECM. The cells were then removed by incubating in PBS-0.25 mM EGTA three times for 6 hours according to the method described in Paige et al., Cell Dev. Biol., 27A:151-157, 1991. During this process, the frequency and resistance of the QCM were recorded and plotted.
To corroborate this discovery, immunocytochemistry was carried out to examine actin stress fiber in the cells using standard techniques.

The test system of assay [2] is MCF-7 cells. Description: whole cell QCM biosensor, Δf and ΔR after drug addition. It counts as cell-based, human. To be noted: for QCM frequency decrease, Phase I / change in QCM resistance, Phase I: hour 0 to hour 6 post drug addition; for QCM frequency decrease, Phase I / change in QCM resistance, Phase I / QCM frequency increase, Phase II: 0.1 μM docetaxel, 10 μM paclitaxel; for QCM frequency increase, Phase II: hour 6 to hour 20 post drug addition. On the procedure:
(§1) Normal human mammary epithelial cells (HMEC), estrogen receptor-positive human breast cancer cells (MCF-7, a non-metastatic, malignant mammary epithelial cells), and estrogen receptor-negative metastatic human breast cancer cells (MDA-MB-231) were used for this study. These commercially available cells were cultured and harvested as recommended by the supplier, American Type Cell Cultures (ATCC). The cells were then seeded onto the chemically modified conducting surface of separate whole cell QCM biosensors and were allowed to reach the steady state. In general, it takes about 12-14 hours (hours) or less (as quick as within 6 hours) for the cells to reach the steady state on the new selective whole cell QCM biosensors. In contrast, on a QCM biosensor without the selective substrate, it takes about 20-24 hours for the cells to reach steady state. Cell number-dependent characteristic Δf and ΔR shift values of these cells were recorded as described in Marx et al., Biosens. Bioelectron., 16(9-12):773-82, 2001.
(§2) MCF-7 cells, which are resistant to paclitaxel treatment and MDA-MB-231 cells, which are sensitive to paclitaxel treatment were seeded onto two separate whole cell QCM biosensors and allowed to reach steady state as described above.
(§3) Paclitaxel (Sigma Chemical Company) was dissolved in dimethylsulfoxide to make a stock solution. The stock solution was properly diluted in culture media before being added to the cells on the QCM biosensors, so that the final concentration was 10 μM. […] After adding paclitaxel, the Δf and ΔR of the QCMs were monitored and recorded hourly.
(§4) MCF-7 cells and MDA-MB-231 cells were cultured and seeded onto QCM biosensors according to the method described above. The cells were then incubated with 0.1 μM docetaxel (Aventis Pharmaceuticals) and 10 μM paclitaxel. The changes in frequencies and resistances of the QCMs were monitored for 24 hours.

Assay [3] relates to MDA-MB-231 cells. The assay is described as above. It counts as cell-based, human. The note with it: for QCM frequency decrease, Phase I / increase in QCM resistance, Phase I: hour 0 to hour 6 post drug addition; for QCM frequency decrease, Phase I / increase in QCM resistance, Phase I / QCM frequency increase, Phase II: 0.1 μM docetaxel, 10 μM paclitaxel; for QCM frequency increase, Phase II: hour 6 to hour 20 post drug addition. How it is done: as §1, §2, §3, §4

Assay [4] deals with MCF-7 cells. Description: conventional proliferation assays and apoptosis assays. It counts as cell-based, human. On the procedure:
(§5) To confirm that the changes in the QCM frequency and resistance are associated with changes in cell growth or apoptosis, conventional proliferation assays and apoptosis assays were conducted on MDA-MB-231 cells and MCF-7 cells treated with docetaxel or paclitaxel. […] For example, both drugs reduced the mitotic index of MCF-7 cells and eliminated that of MDA-MB-231.

For assay [5], the system named is MDA-MB-231 cells. Described as above. It counts as cell-based, human. How it is done:
as §5

Assay [6] has as its system MCF-7 cells. Description: apoptosis assay (DAPI staining; Apoptotic Index and Mitotic Index). It counts as cell-based, human. How it is done:
(§6) Duplicate MCF-7 or MDA-MB-231 cells that were treated with the same dose of paclitaxel were analyzed using an apoptosis assay as described in Warren M. et al., Free Radic Biol Med. 29:537-47, 2000. Briefly, cells were fixed sequentially in 50% and 100% methanol for 5 minutes each. The cells were then stained with 4,6,diamidino-2-phenylindole (DAPI; Sigma) at a final concentration of 0.5 mg/ml at 37° C. for 30 minutes. After being air-dried and mounted with 1:3 PBS-glycerol, chromatin distribution in the cells were visualized by fluorescence. […] Apoptosis was scored as the percentage of apoptotic cells in relation to the total cell number (i.e., Apoptotic Index), corrected for baseline apoptosis. Mitotic cells were also identified and mitosis was scored as the percentage of the mitotic cells in relation to all of the cells (i.e., Mitotic Index).

Assay [7] relates to MDA-MB-231 cells. Described as above. It counts as cell-based, human. How it is done:
as §6

Assay [8] deals with MCF-7 cells. The description is as above. It counts as cell-based, human. The note with it: 10 μM.
Setting [9] is: PBS-0.25 mM EGTA, EGTA 1 at hour 112 after cell seeding.
Where [10] appears, read: 10 μM, 8 hours post paclitaxel addition.
[11] abbreviates: 10 μM, 50 hours post paclitaxel addition.
Setting [12] is: 10 μM, between 8 and 50 hours post addition.

In the case of `O=C(O)CN(CCOCCOCCN(CC(=O)O)CC(=O)O)CC(=O)O` [EGTA], in assay [1] (setting [9]), the “ΔR on initial exposure” value is recorded as “large decrease” and the “Δf on initial exposure” value was “large increase”. Also, in assay [1] (PBS-0.25 mM EGTA, first exposure), the “time for frequency and resistance to return to stable values” is not above 2 h. The “cell detachment from the surface” value in assay [1] (minute 120 after exposing to EGTA) is on record as “most cells had detached”.
Turning to `CC(=O)O[C@@]12CO[C@@H]1C[C@H](O)[C@@]1(C)C(=O)[C@H](O)C3=C(C)[C@@H](OC(=O)[C@H](O)[C@@H](NC(=O)OC(C)(C)C)c4ccccc4)C[C@@](O)([C@@H](OC(=O)c4ccccc4)[C@H]21)C3(C)C` [docetaxel], in the assay on MCF-7 cells [2], the “QCM frequency decrease, Phase I” value is listed as −50 Hz; the “change in QCM resistance, Phase I” value is given as “little change”; the “QCM frequency increase, Phase II” value was 10-20 Hz. Also, in the assay on MDA-MB-231 cells [3], the “QCM frequency decrease, Phase I” value was −70 Hz; the “increase in QCM resistance, Phase I” value is on record as 20 Ohm; the “QCM frequency increase, Phase II” value came to 98 Hz. Moreover, in the assay on MCF-7 cells [4], the apoptosis entry is on record as “induced apoptosis”, the cell growth result was “inhibited cell growth” and the mitotic index result is given as “reduced”. In addition, in the assay on MDA-MB-231 cells [5], the apoptosis entry is recorded as “induced apoptosis”, the cell growth result is on record as “inhibited cell growth” and the mitotic index entry is “eliminated”.
As to `CC(=O)O[C@H]1C(=O)[C@@]2(C)[C@H]([C@H](OC(=O)c3ccccc3)[C@]3(O)C[C@H](OC(=O)[C@H](O)[C@@H](NC(=O)c4ccccc4)c4ccccc4)C(C)=C1C3(C)C)[C@]1(OC(C)=O)CO[C@@H]1C[C@@H]2O` [paclitaxel], the “Apoptotic Index (AI)” value in the assay on MCF-7 cells [6] (3 hours, 10 uM) was less than 1%; in the assay with MCF-7 cells [6] (6 hours, 0.1 uM), 1%; in the assay with MCF-7 cells [6] (6 hours, 1.0 uM) it was 4.5%; in the assay on MCF-7 cells [6] (6 hours, 10 uM), 11%; with MCF-7 cells [6] (12 hours, 10 uM) it was 25%; in the assay with MCF-7 cells [6] (24 hours, 10 uM), 33%. The “Apoptotic Index (AI)” value was less than 1% with MDA-MB-231 cells [7] (3 hours, 10 uM); 1% in the assay with MDA-MB-231 cells [7] (6 hours, 0.1 uM); 8.5% in the assay with MDA-MB-231 cells [7] (6 hours, 1.0 uM); 10% in the assay on MDA-MB-231 cells [7] (6 hours, 10 uM); 40% with MDA-MB-231 cells [7] (12 hours, 10 uM); 84% with MDA-MB-231 cells [7] (24 hours, 10 uM). Further, the “Mitotic Index (MI)” value is given as 1% in the assay with MCF-7 cells [6] (3 hours, 10 uM); 1% in the assay with MCF-7 cells [6] (6 hours, 0.1 uM); 0% with MCF-7 cells [6] (6 hours, 1.0 uM); 0% in the assay with MCF-7 cells [6] (6 hours, 10 uM); 0% with MCF-7 cells [6] (12 hours, 10 uM); 0% in the assay on MCF-7 cells [6] (24 hours, 10 uM). The “Mitotic Index (MI)” value with MDA-MB-231 cells [7] (3 hours, 10 uM) is listed as 0%; in the assay on MDA-MB-231 cells [7] (6 hours, 0.1 uM) it was 0%; with MDA-MB-231 cells [7] (6 hours, 1.0 uM) it was 0%; in the assay on MDA-MB-231 cells [7] (6 hours, 10 uM) it was 0%; in the assay with MDA-MB-231 cells [7] (12 hours, 10 uM), 0%; in the assay with MDA-MB-231 cells [7] (24 hours, 10 uM), 0%. Also, the “start of obvious cell shape change and eventually apoptosis, time post paclitaxel addition” value in the assay with MDA-MB-231 cells [7] (10 μM) and with MCF-7 cells [8] was 8 h throughout. The “ΔR decrease immediately after adding the drug” value in the assay with MCF-7 cells [2] (10 μM) is given as 50 Ω. Besides, the ΔR entry in the assay with MCF-7 cells [2] (setting [10]) is on record as “about 40 Ω”; with MCF-7 cells [2] (setting [11]), “about 20 Ω”; in the assay on MDA-MB-231 cells [3] (setting [10]), “about 80 Ω”; in the assay on MDA-MB-231 cells [3] (setting [11]) it was “about 40 Ω”. The Δf was −300 Hz in the assay on MCF-7 cells [2] (setting [10]), −260 Hz in the assay on MCF-7 cells [2] (setting [11]), −250 Hz in the assay on MDA-MB-231 cells [3] (setting [10]) and −110 Hz in the assay with MDA-MB-231 cells [3] (setting [11]). Also, the “magnitude of change of ΔR” value in the assay with MCF-7 cells [2] (setting [12]) was 20 Ω; with MDA-MB-231 cells [3] (setting [12]), 40 Ω. Also, the “magnitude of change of Δf” value is on record as 40 Hz with MCF-7 cells [2] (setting [12]) and 140 Hz in the assay on MDA-MB-231 cells [3] (setting [12]). Further, the “QCM frequency decrease, Phase I” value in the assay with MCF-7 cells [2] and in the assay on MDA-MB-231 cells [3] was −20 Hz in each case. In the assay on MCF-7 cells [2], the “change in QCM resistance, Phase I” value was “little change”. Also, the “QCM frequency increase, Phase II” value came out at 50 Hz in the assay with MCF-7 cells [2] and 60 Hz in the assay with MDA-MB-231 cells [3]. For the same molecule, in the assay on MDA-MB-231 cells [3] (10 μM), the “ΔR increase immediately after adding the drug” value is given as “about 70 Ω”. For the same molecule, in the assay with MDA-MB-231 cells [3], the “increase in QCM resistance, Phase I” value was “little change”. Also, the apoptosis entry in the assay with MCF-7 cells [4] and in the assay with MDA-MB-231 cells [5] was “induced apoptosis” each time. In addition, the cell growth entry in the assay with MCF-7 cells [4] and in the assay on MDA-MB-231 cells [5] was “inhibited cell growth” throughout. Besides, the mitotic index result was “reduced” with MCF-7 cells [4] and “eliminated” with MDA-MB-231 cells [5].
